Data reported in ChEMBL document CHEMBL1201862, “PubChem BioAssay data set” (2004).
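Method: 48-hour compound exposure of cells in 96-well plates, five concentrations, linear interpolation of endpoints. At the GI50, growth is halved.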 Active and inactive are the calls of the source. Cut-off read from the data, not from the text of the source: active = GI50 up to about 1.1 µM and inactive = higher.

How the values were obtained:
Experiment in all cases: growth of human tumour cells (NCI), 48 h
HCC 2998 = tested on: HCC 2998
SF-295 = tested on: SF-295
PC-3 = tested on: PC-3
RPMI-8226 = tested on: RPMI-8226
EKVX = tested on: EKVX
NCI/ADR-RES = tested on: NCI/ADR-RES
IGROV-1 = tested on: IGROV-1
KM12 = tested on: KM12
786-0 = tested on: 786-0
NCI-H23 = tested on: NCI-H23
NCI-H226 = tested on: NCI-H226
T47D = tested on: T47D
M14 = tested on: M14
NCI-H522 = tested on: NCI-H522
OVCAR-4 = tested on: OVCAR-4
MDA-MB-231 = tested on: MDA-MB-231
CCRF-CEM = tested on: CCRF-CEM
UACC-257 = tested on: UACC-257
LOX IMVI = tested on: LOX IMVI
SN12C = tested on: SN12C
SF-268 = tested on: SF-268
A498 = tested on: A498
Malme-3M = tested on: Malme-3M
MCF7 = tested on: MCF7
MDA-MB-435 = tested on: MDA-MB-435
SF-539 = tested on: SF-539
COLO 205 = tested on: COLO 205
SNB-19 = tested on: SNB-19
BT-549 = tested on: BT-549
SK-MEL-28 = tested on: SK-MEL-28
K562 = tested on: K562
HOP-62 = tested on: HOP-62
UO-31 = tested on: UO-31
CAKI-1 = tested on: CAKI-1
SW-620 = tested on: SW-620
SK-MEL-5 = tested on: SK-MEL-5
UACC-62 = tested on: UACC-62
OVCAR-8 = tested on: OVCAR-8
OVCAR-5 = tested on: OVCAR-5
ACHN = tested on: ACHN
DU-145 = tested on: DU-145
TK-10 = tested on: TK-10
SNB-75 = tested on: SNB-75
U-251 = tested on: U-251
NCI-H460 = tested on: NCI-H460
HCT-15 = tested on: HCT-15
SR = tested on: SR
HT-29 = tested on: HT-29
MOLT-4 = tested on: MOLT-4
A549 = tested on: A549
SK-MEL-2 = tested on: SK-MEL-2
HCT-116 = tested on: HCT-116
MDA-N = tested on: MDA-N
RXF 393 = tested on: RXF 393
OVCAR-3 = tested on: OVCAR-3
HL-60 = tested on: HL-60
SK-OV-3 = tested on: SK-OV-3

With COc1ccc(-c2cc(-c3ccc(Nc4ccnc5cc(Cl)ccc45)cc3)nc(N)c2C#N)c2ccccc12 the GI50 (HCC 2998) was > 100 µM (inactive), the GI50 (SF-295) was > 100 µM (inactive) and the GI50 (PC-3) was > 100 µM (inactive). For the same molecule, the GI50 (RPMI-8226) was > 100 µM (inactive), the GI50 (EKVX) was > 100 µM (inactive) and the GI50 (NCI/ADR-RES) was > 100 µM (inactive). The GI50 (IGROV-1) was > 100 µM (inactive), the GI50 (KM12) was > 100 µM (inactive) and the GI50 (786-0) was > 100 µM (inactive). For the same molecule, the GI50 (NCI-H23) was > 100 µM (inactive), the GI50 (NCI-H226) was > 100 µM (inactive) and the GI50 (T47D) was > 100 µM (inactive). The GI50 (M14) was > 100 µM (inactive), the GI50 (NCI-H522) was > 100 µM (inactive) and the GI50 (OVCAR-4) was > 100 µM (inactive). For the same molecule, the GI50 (MDA-MB-231) was > 100 µM (inactive), the GI50 (CCRF-CEM) was > 100 µM (inactive) and the GI50 (UACC-257) was > 100 µM (inactive). The GI50 (LOX IMVI) was > 100 µM (inactive), the GI50 (SN12C) was > 100 µM (inactive) and the GI50 (SF-268) was > 100 µM (inactive). For the same molecule, the GI50 (A498) was > 100 µM (inactive), the GI50 (Malme-3M) was > 100 µM (inactive) and the GI50 (MCF7) was > 100 µM (inactive). The GI50 (MDA-MB-435) was > 100 µM (inactive), the GI50 (SF-539) was > 100 µM (inactive) and the GI50 (COLO 205) was > 100 µM (inactive). For the same molecule, the GI50 (SNB-19) was > 100 µM (inactive), the GI50 (BT-549) was > 100 µM (inactive) and the GI50 (SK-MEL-28) was > 100 µM (inactive). For the same molecule, the GI50 (K562) was > 100 µM (inactive), the GI50 (HOP-62) was > 100 µM (inactive) and the GI50 (UO-31) was > 100 µM (inactive). For the same molecule, the GI50 (CAKI-1) was > 100 µM (inactive), the GI50 (SW-620) was > 100 µM (inactive) and the GI50 (SK-MEL-5) was > 100 µM (inactive). The GI50 (UACC-62) was > 100 µM (inactive), the GI50 (OVCAR-8) was > 100 µM (inactive) and the GI50 (OVCAR-5) was > 100 µM (inactive). The GI50 (ACHN) was > 100 µM (inactive), the GI50 (DU-145) was > 100 µM (inactive) and the GI50 (TK-10) was > 100 µM (inactive). For the same molecule, the GI50 (SNB-75) was > 100 µM (inactive), the GI50 (U-251) was > 100 µM (inactive) and the GI50 (NCI-H460) was > 100 µM (inactive). The GI50 (HCT-15) was > 100 µM, the GI50 (SR) was > 100 µM (inactive) and the GI50 (HT-29) was > 100 µM (inactive). The GI50 (MOLT-4) was > 100 µM (inactive), the GI50 (A549) was > 100 µM (inactive) and the GI50 (SK-MEL-2) was > 100 µM (inactive). For the same molecule, the GI50 (HCT-116) was > 100 µM (inactive), the GI50 (MDA-N) was > 100 µM (inactive) and the GI50 (RXF 393) was > 100 µM (inactive).
For NC1CC(=O)c2sc(I)cc21 (stereo not given), the GI50 (HCC 2998) was > 100 µM (inactive), the GI50 (PC-3) was > 100 µM (inactive) and the GI50 (OVCAR-3) was > 100 µM (inactive). For the same molecule, the GI50 (RPMI-8226) was 92.5 µM (inactive), the GI50 (EKVX) was > 100 µM (inactive) and the GI50 (NCI/ADR-RES) was > 100 µM (inactive). For the same molecule, the GI50 (IGROV-1) was > 100 µM (inactive), the GI50 (KM12) was > 100 µM (inactive) and the GI50 (786-0) was > 100 µM (inactive). For the same molecule, the GI50 (T47D) was > 100 µM (inactive), the GI50 (M14) was > 100 µM (inactive) and the GI50 (HL-60) was 18.7 µM (inactive). For the same molecule, the GI50 (MDA-MB-231) was > 100 µM (inactive), the GI50 (CCRF-CEM) was 37.4 µM (inactive) and the GI50 (UACC-257) was > 100 µM (inactive). For the same molecule, the GI50 (SN12C) was > 100 µM (inactive), the GI50 (SF-268) was > 100 µM (inactive) and the GI50 (A498) was > 100 µM (inactive). The GI50 (Malme-3M) was > 100 µM (inactive), the GI50 (MCF7) was > 100 µM (inactive) and the GI50 (MDA-MB-435) was 88.7 µM (inactive). For the same molecule, the GI50 (SF-539) was > 100 µM (inactive), the GI50 (COLO 205) was > 100 µM (inactive) and the GI50 (SNB-19) was > 100 µM (inactive). For the same molecule, the GI50 (BT-549) was > 100 µM (inactive), the GI50 (SK-MEL-28) was > 100 µM (inactive) and the GI50 (K562) was 74 µM (inactive). For the same molecule, the GI50 (SK-OV-3) was > 100 µM (inactive), the GI50 (HOP-62) was > 100 µM (inactive) and the GI50 (UO-31) was > 100 µM (inactive). For the same molecule, the GI50 (CAKI-1) was 40.3 µM (inactive), the GI50 (SW-620) was 53.6 µM (inactive) and the GI50 (SK-MEL-5) was > 100 µM (inactive). For the same molecule, the GI50 (UACC-62) was > 100 µM (inactive), the GI50 (OVCAR-8) was > 100 µM (inactive) and the GI50 (OVCAR-5) was > 100 µM (inactive). The GI50 (ACHN) was > 100 µM (inactive), the GI50 (DU-145) was > 100 µM (inactive) and the GI50 (TK-10) was > 100 µM (inactive). The GI50 (SNB-75) was > 100 µM (inactive), the GI50 (U-251) was > 100 µM (inactive) and the GI50 (NCI-H460) was 69.8 µM (inactive). For the same molecule, the GI50 (HCT-15) was 35.8 µM, the GI50 (SR) was 8.39 µM (inactive) and the GI50 (HT-29) was > 100 µM (inactive). The GI50 (MOLT-4) was 71.9 µM (inactive), the GI50 (A549) was > 100 µM (inactive) and the GI50 (SK-MEL-2) was > 100 µM (inactive). For the same molecule, the GI50 (HCT-116) was 78.9 µM (inactive), the GI50 (MDA-N) was > 100 µM (inactive) and the GI50 (RXF 393) was > 100 µM (inactive).
